# Data as given in publication PMC12892976, “Alkylation-based optimization of antifungal FPPS inhibitors yields a potent, broad-spectrum lipophilic zoledronate derivative” (mBio, 2025).
# Read-outs that look alike come from different tables or passages of the source.
# Tests used:
# Aspergillus flavus [1] = assay: checkerboard drug interaction (FICI, MICc);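 note: simplified diagonal checkerboard screen pairing azole antifungals with FPPS inhibitors, FICI calculated under the Loewe additivity model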; format: cell-based; set-up: INH MICc (KET:INH) / INH MICc (FLC:INH): unit not given beside the values; conditions: A. flavus
# eight fungal species [2] = assay: MIC/MFC summary across the eight fungal species of Table 1; format: cell-based
# Procedure: The antifungal activity of these compounds was evaluated according to CLSI guidelines ([16]).
# Cryptococcus neoformans [3] = assay: checkerboard drug interaction (FICI, MICc);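 for all read-outs here: antifungal plus FPPS inhibitor pairs tested against Cryptococcus neoformans by simplified diagonal checkerboard screening, FICI computed under the Loewe additivity model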; format: cell-based; conditions: C. neoformans; for INH FD (MIC-MICc fold decrease): fold decrease of inhibitor MIC
# Procedure: (§1) Drug interactions between antifungals and FPPS inhibitors were investigated using a simplified checkerboard diagonal screening method ([45]). […] FICIs were determined according to the Loewe additivity model ([17]).
# Aspergillus flavus [4] = assay: MIC/MFC broth microdilution (CLSI); conditions: ATCC204304
# Procedure: (§2) Antifungal susceptibility was determined by broth microdilution according to the CLSI guidelines described in M27-Ed4 ([16]). […] MFC was determined by back-plating drug-treated cultures from MIC broths onto SDA plates. The MFC was defined as the lowest concentration from which no colonies could be cultured.
# [5] = test system: Cryptococcus deuterogattii; assay: checkerboard drug interaction (FICI, MICc);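 for all read-outs here: simplified diagonal checkerboard screen pairing antifungal drugs with FPPS inhibitors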; format: cell-based; conditions: C. deuterogattii; for INH FD (MIC-MICc fold decrease): fold decrease of inhibitor MIC
# Procedure: as §1
# Saccharomyces cerevisiae [6] = assay: checkerboard drug interaction (FICI, MICc); format: cell-based; set-up: INH MICc / INH MICc (ITR:INH) / INH MICc (KET:INH) / INH MICc (FLC:INH): unit not given beside the values;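 note: simplified diagonal checkerboard screen pairing antifungals with FPPS inhibitors, FICI calculated under the Loewe additivity model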
# Candida glabrata [7] = assay: checkerboard drug interaction (FICI, MICc);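 for all read-outs here: simplified diagonal checkerboard screen pairing antifungals with FPPS inhibitors, FICI calculated under the Loewe additivity model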; format: cell-based; conditions: C. glabrata; for INH FD (MIC-MICc fold decrease): fold decrease of inhibitor MIC
# Procedure: as §1
# Aspergillus fumigatus [8] = assay: MIC/MFC broth microdilution (CLSI); conditions: ATCC204305
# Procedure: as §2
# Candida albicans [9] = assay: checkerboard drug interaction (FICI, MICc);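 for all read-outs here: antifungal plus FPPS inhibitor combinations on Candida albicans tested by a simplified diagonal checkerboard screen, with FICI calculated under the Loewe additivity model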; format: cell-based; conditions: C. albicans; for INH FD (MIC-MICc fold decrease): fold decrease of inhibitor MIC
# Procedure: as §1
# eight fungal species [10] = assay: checkerboard interaction with azoles, summary across the eight species; format: cell-based; conditions: geometric mean MIC in combination with azoles
# Description: Synergy between lipophilic FPPS inhibitors and azole antifungals was investigated by determining the fractional inhibitory concentration index (FICI) (Fig. 2; Table S1 Fig. S1) ([17]). […]. Derivatives PLA9 and 11, and PDA9, 11, and 12 antagonized azoles in C. albicans, C. neoformans, and C. deuterogattii, yet were largely synergistic in C. glabrata and S. cerevisiae. […].
# Trichophyton rubrum [11] = assay: MIC/MFC broth microdilution (CLSI); conditions: Trichophyton rubrum
# Procedure: as §2
# Cryptococcus neoformans [12] = assay: MIC/MFC broth microdilution (CLSI); conditions: Cryptococcus neoformans;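 note: susceptibility testing followed the CLSI M27-Ed4 broth microdilution document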
# Procedure: as §2
# Saccharomyces cerevisiae [13] = assay: MIC/MFC broth microdilution (CLSI); format: cell-based; conditions: Saccharomyces cerevisiae S288c
# Procedure: as §2
# [14] = test system: Cryptococcus deuterogattii; assay: MIC/MFC broth microdilution (CLSI); conditions: Cryptococcus deuterogattii;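 note: broth microdilution per CLSI M27-Ed4. MFC is the lowest concentration yielding no colonies when MIC broths are subcultured onto SDA plates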
# Procedure: as §2
# Candida albicans [15] = assay: MIC/MFC broth microdilution (CLSI); format: cell-based; conditions: Candida albicans SC5314
# Procedure: as §2
# HEK-293T cells = assay: MTT reduction cytotoxicity assay; format: cell-based; conditions: Homo sapiens, HEK-293T, 72 h, MTT, 72 h
# Candida glabrata [16] = assay: MIC/MFC broth microdilution (CLSI); conditions: Nakaseomyces glabratus, CBS138;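 note: broth microdilution following CLSI M27-Ed4, MFC taken as the lowest drug level yielding no growth once MIC wells were subcultured on SDA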
# Procedure: as §2
# Trichophyton rubrum [17] = assay: checkerboard drug interaction (FICI, MICc);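 note: simplified diagonal checkerboard screen pairing azole antifungals with FPPS inhibitors, FICI calculated under the Loewe additivity model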; format: cell-based; conditions: T. rubrum
# Procedure: as §1
# Aspergillus fumigatus [18] = assay: checkerboard drug interaction (FICI, MICc); format: cell-based;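 note: simplified diagonal checkerboard screen pairing antifungals with FPPS inhibitors against Aspergillus fumigatus, with FICI calculated under the Loewe additivity model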
# Procedure: as §1
# [19] = Fractional Inhibitory Concentration Index, fluconazole + inhibitor
# [20] = Fractional Inhibitory Concentration Index, itraconazole + inhibitor
# [21] = Fractional Inhibitory Concentration Index, ketoconazole + inhibitor
# [22] = MIC of the inhibitor in combination with fluconazole
# [23] = MIC of the inhibitor in combination with itraconazole
# [24] = MIC of the inhibitor in combination with ketoconazole
# [25] = MIC-MICc fold decrease of fluconazole, negative = increase
# [26] = MIC-MICc fold decrease of itraconazole, negative = increase
# [27] = MIC-MICc fold decrease of ketoconazole, negative = increase
# [28] = MIC-MICc fold decrease of the inhibitor, with fluconazole
# [29] = MIC-MICc fold decrease of the inhibitor, with itraconazole
# [30] = MIC-MICc fold decrease of the inhibitor, with ketoconazole
# [31] = FLC:INH combination, MIC of the inhibitor in combination with FLC
# [32] = FLC:INH combination, fold decrease of FLC MIC
# [33] = ITR:INH combination, MIC of the inhibitor in combination with ITR
# [34] = ITR:INH combination, fold decrease of ITR MIC
# [35] = KET:INH combination, MIC of the inhibitor in combination with KET
# [36] = KET:INH combination, fold decrease of KET MIC
smiles,measurement,setting,value
CCCCCCCCCCCCN1CCC[C@H]1C(=O)N[C@H](CC(=O)OC)C(=O)OC [dmPDA12],FICI (FLC:INH),Aspergillus flavus [1]; [19],1.5
same,FICI (ITR:INH),Aspergillus flavus [1]; [20],0.28
same,FICI (KET:INH),Aspergillus flavus [1]; [21],0.27
same,INH MICc (FLC:INH),Aspergillus flavus [1]; [22],128
same,INH MICc (ITR:INH),Aspergillus flavus [1]; [23],8
same,INH MICc (KET:INH),Aspergillus flavus [1]; [24],4
same,FLC FD (FLC:INH),Aspergillus flavus [1]; [25],1
same,ITR FD (ITR:INH),Aspergillus flavus [1]; [26],4
same,KET FD (KET:INH),Aspergillus flavus [1]; [27],4
same,INH FD (FLC:INH),Aspergillus flavus [1]; [28],2
same,INH FD (ITR:INH),Aspergillus flavus [1]; [29],32
same,INH FD (KET:INH),Aspergillus flavus [1]; [30],64
same,MFC,"eight fungal species [2]; across eight species, read-out: Geometric mean MFC",140 µg/mL
same,MIC,"eight fungal species [2]; geometric mean across eight species, read-out: GM fungal MIC",49.4 µg/mL
same,MIC,eight fungal species [2]; read-out: Geometric mean MIC,49.4 µg/mL
same,FICI,Cryptococcus neoformans [3]; FLC:INH combination,1.25
same,INH MICc,Cryptococcus neoformans [3]; [31],8
same,FLC FD (MIC-MICc fold decrease),Cryptococcus neoformans [3]; [32],4
same,INH FD (MIC-MICc fold decrease),Cryptococcus neoformans [3]; FLC:INH combination,1
same,FICI,Cryptococcus neoformans [3]; ITR:INH combination,1.25
same,INH MICc,Cryptococcus neoformans [3]; [33],8
same,ITR FD (MIC-MICc fold decrease),Cryptococcus neoformans [3]; [34],4
same,INH FD (MIC-MICc fold decrease),Cryptococcus neoformans [3]; ITR:INH combination,1
same,FICI,Cryptococcus neoformans [3]; KET:INH combination,1.25
same,INH MICc,Cryptococcus neoformans [3]; [35],8
same,KET FD (MIC-MICc fold decrease),Cryptococcus neoformans [3]; [36],4
same,INH FD (MIC-MICc fold decrease),Cryptococcus neoformans [3]; KET:INH combination,1
same,MFC,Aspergillus flavus [4],> 128 µg/mL
same,MIC,Aspergillus flavus [4],> 128 µg/mL
same,FICI,[5]; FLC:INH combination,2
same,INH MICc,[5]; [31],64
same,FLC FD (MIC-MICc fold decrease),[5]; [32],1
same,INH FD (MIC-MICc fold decrease),[5]; FLC:INH combination,1
same,FICI,[5]; ITR:INH combination,0.38
same,INH MICc,[5]; [33],8
same,ITR FD (MIC-MICc fold decrease),[5]; [34],4
same,INH FD (MIC-MICc fold decrease),[5]; ITR:INH combination,8
same,FICI,[5]; KET:INH combination,0.16
same,INH MICc,[5]; [35],8
same,KET FD (MIC-MICc fold decrease),[5]; [36],32
same,INH FD (MIC-MICc fold decrease),[5]; KET:INH combination,8
same,FICI (FLC:INH),Saccharomyces cerevisiae [6]; [19],0.75
same,FICI (ITR:INH),Saccharomyces cerevisiae [6]; [20],1.06
same,FICI (KET:INH),Saccharomyces cerevisiae [6]; [21],0.56
same,INH MICc (FLC:INH),Saccharomyces cerevisiae [6]; [22],32
same,INH MICc (ITR:INH),Saccharomyces cerevisiae [6]; [23],4
same,INH MICc (KET:INH),Saccharomyces cerevisiae [6]; [24],32
same,FLC FD (FLC:INH),Saccharomyces cerevisiae [6]; [25],4
same,ITR FD (ITR:INH),Saccharomyces cerevisiae [6]; [26],1
same,KET FD (KET:INH),Saccharomyces cerevisiae [6]; [27],16
same,INH FD (FLC:INH),Saccharomyces cerevisiae [6]; [28],2
same,INH FD (ITR:INH),Saccharomyces cerevisiae [6]; [29],16
same,INH FD (KET:INH),Saccharomyces cerevisiae [6]; [30],2
same,FICI,Candida glabrata [7]; FLC:INH combination,2.5
same,INH MICc,Candida glabrata [7]; [31],8
same,FLC FD (MIC-MICc fold decrease),Candida glabrata [7]; [32],2
same,INH FD (MIC-MICc fold decrease),Candida glabrata [7]; FLC:INH combination,1
same,FICI,Candida glabrata [7]; ITR:INH combination,1.5
same,INH MICc,Candida glabrata [7]; [33],4
same,ITR FD (MIC-MICc fold decrease),Candida glabrata [7]; [34],2
same,INH FD (MIC-MICc fold decrease),Candida glabrata [7]; ITR:INH combination,2
same,FICI,Candida glabrata [7]; KET:INH combination,0.38
same,INH MICc,Candida glabrata [7]; [35],1
same,KET FD (MIC-MICc fold decrease),Candida glabrata [7]; [36],8
same,INH FD (MIC-MICc fold decrease),Candida glabrata [7]; KET:INH combination,8
same,MFC,Aspergillus fumigatus [8],> 128 µg/mL
same,MIC,Aspergillus fumigatus [8],128 µg/mL
same,FICI,Candida albicans [9]; FLC:INH combination,1.06
same,INH MICc,Candida albicans [9]; [31],8
same,FLC FD (MIC-MICc fold decrease),Candida albicans [9]; [32],1
same,INH FD (MIC-MICc fold decrease),Candida albicans [9]; FLC:INH combination,16
same,FICI,Candida albicans [9]; ITR:INH combination,0.53
same,INH MICc,Candida albicans [9]; [33],4
same,ITR FD (MIC-MICc fold decrease),Candida albicans [9]; [34],2
same,INH FD (MIC-MICc fold decrease),Candida albicans [9]; ITR:INH combination,32
same,FICI,Candida albicans [9]; KET:INH combination,0.53
same,INH MICc,Candida albicans [9]; [35],4
same,KET FD (MIC-MICc fold decrease),Candida albicans [9]; [36],2
same,INH FD (MIC-MICc fold decrease),Candida albicans [9]; KET:INH combination,32
same,GM fungal MICc,eight fungal species [10],12
same,MFC,Trichophyton rubrum [11],> 128 µg/mL
same,MIC,Trichophyton rubrum [11],8 µg/mL
same,MFC,Cryptococcus neoformans [12],32 µg/mL
same,MIC,Cryptococcus neoformans [12],8 µg/mL
same,MFC,Saccharomyces cerevisiae [13],> 128 µg/mL
same,MIC,Saccharomyces cerevisiae [13],64 µg/mL
same,MFC,[14],32 µg/mL
same,MIC,[14],8 µg/mL
same,MFC,Candida albicans [15],> 128 µg/mL
same,MIC,Candida albicans [15],> 128 µg/mL
same,IC50,"HEK-293T cells; HEK-293T cells, read-out: IC50",0.161 µg/mL
same,IC50,HEK-293T cells; read-out: HEK IC50,0.161 µg/mL
same,MFC,Candida glabrata [16],128 µg/mL
same,MIC,Candida glabrata [16],128 µg/mL
same,FICI (FLC:INH),Trichophyton rubrum [17]; [19],≥4
same,FICI (ITR:INH),Trichophyton rubrum [17]; [20],≥4
same,FICI (KET:INH),Trichophyton rubrum [17]; [21],≥4
same,INH MICc (FLC:INH),Trichophyton rubrum [17]; [22],32
same,INH MICc (ITR:INH),Trichophyton rubrum [17]; [23],32
same,INH MICc (KET:INH),Trichophyton rubrum [17]; [24],32
same,FLC FD (FLC:INH),Trichophyton rubrum [17]; [25],-2
same,ITR FD (ITR:INH),Trichophyton rubrum [17]; [26],8
same,KET FD (KET:INH),Trichophyton rubrum [17]; [27],4
same,INH FD (FLC:INH),Trichophyton rubrum [17]; [28],-4
same,INH FD (ITR:INH),Trichophyton rubrum [17]; [29],-4
same,INH FD (KET:INH),Trichophyton rubrum [17]; [30],-4
same,FICI (FLC:INH),Aspergillus fumigatus [18]; [19],1.5
same,FICI (ITR:INH),Aspergillus fumigatus [18]; [20],0.26
same,FICI (KET:INH),Aspergillus fumigatus [18]; [21],2
same,INH MICc (FLC:INH),Aspergillus fumigatus [18]; [22],128
same,INH MICc (ITR:INH),Aspergillus fumigatus [18]; [23],1
same,INH MICc (KET:INH),Aspergillus fumigatus [18]; [24],128
same,FLC FD (FLC:INH),Aspergillus fumigatus [18]; [25],2
same,ITR FD (ITR:INH),Aspergillus fumigatus [18]; [26],4
same,KET FD (KET:INH),Aspergillus fumigatus [18]; [27],1
same,INH FD (FLC:INH),Aspergillus fumigatus [18]; [28],1
same,INH FD (ITR:INH),Aspergillus fumigatus [18]; [29],128
same,INH FD (KET:INH),Aspergillus fumigatus [18]; [30],1
